In EP1591107A1, “Process for the selective increase of a release rate of an active material from a pharmaceutical composition” (Pfizer GmbH Arzneimittelwerk Gödecke, priority 2004, dated 2005):
Converted amounts (≈) assume the structure as drawn. Structures can show the parent of a compound that is named as a salt. Where two headings read alike, the source gives them in different places.

Columns and labels:
[1] = in water, classification taken from the European Pharmacopoeia, cited from earlier work
[2] = Solubility in water (European Pharmacopoeia solubility classes)

SMILES | solubility class according to the European Pharmacopoeia [1] | volume of water in which 1 g is soluble ([2]; 1 g of active material, water) | solubility class according to the definition of the European Pharmacopoeia ([2]; class derived from the printed solubility in water) | solubility ([2]; water) | solubility class according to the European Pharmacopoeia ([1]; hydrochloride) | solubility class according to the European Pharmacopoeia ([1]; listed as Diltiazem® hydrochloride, hydrochloride)
CC(C)C[C@H](CN)CC(=O)O [pregabalin] | sparingly soluble | 31 mL | sparingly soluble | 32.1 mg/mL (≈ 202 mM) |  | 
COc1ccc([C@@H]2Sc3ccccc3N(CCN(C)C)C(=O)[C@@H]2OC(C)=O)cc1 [diltiazem hydrochloride] |  |  |  |  | freely soluble | very soluble
